Measured values from patent US9920030B2 (priority 2006, dated 2018).
Where two headings read alike, the source gives them in different places.

What was measured:
Assay type in all cases: in vivo
[1] = test system: Phytophthora infestans (the causal agent of tomato late blight); assay: whole plant or invertebrate
[2] = test system: Phytophthora infestans (the causal agent of tomato late blight); assay: whole plant or invertebrate; remark: listed apart in the source
[3] = test system: Plasmopara vilicola (the causal agent of grape downy mildew); assay: Test A: grape downy mildew, test suspension sprayed on grape seedlings after inoculation, visual disease rating
How it was run: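 Compounds dissolved in acetone (3% of final volume), suspended in 50/50 acetone/water with 250 ppm Trem 014; 200 ppm to run-off equals 500 g/ha. Seedlings inoculated, held saturated at 20 °C 24 h, then sprayed; 5 days at 20 °C, 24 h saturated, then visual rating, 0–100% control versus untreated.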

[4] = compounds without asterisk (application rate not given), 100 = 100% disease control, 0 = no control relative to the controls
[5] = Phytophthora infestans, 144 h, read-out: Percent Disease Control, Test B
[6] = Phytophthora infestans, 96 h, read-out: Percent Disease Control, Test C
[7] = Plasmopara, 144 h, * tested at 40 ppm, read-out: Percent Disease Control, Test A

**Q.** Cc1cc(C(F)(F)F)nn1CC(=O)N1CCC(c2nc(-c3ccc(Cl)cc3)cs2)CC1 [Compound 120] was tested. Which “Percent Disease Control, Test B” value [1, 4] did it give?
**A.** Its value is 88%.

**Q.** And the “Percent Disease Control, Test C” value [2, 4]?
**A.** Its value is 0%.

**Q.** What about the “Percent Disease Control, Test A” value [3, 4] of the same molecule?
**A.** The value was 99%.

**Q.** Which results are given for Cc1cc(C(F)(F)F)nn1CC(=O)N1CCC(c2nc(-c3ccccc3Cl)cs2)CC1 [Compound 121]?
**A.** Percent Disease Control, Test B [1, 4]: 47%; Percent Disease Control, Test C [2, 4]: 0%; Percent Disease Control, Test A [3, 4]: 83%

**Q.** For Cc1cc(C(F)(F)F)nn1CC(=O)N1CCC(c2nc(-c3ccc(C(F)(F)F)cc3)cs2)CC1 [Compound 122], which “Percent Disease Control, Test B” value [1, 4] is on record?
**A.** The value was 46%.

**Q.** What about the “Percent Disease Control, Test C” value [2, 4] of the same molecule?
**A.** Its value is 0%.

**Q.** What about the “Percent Disease Control, Test A” value [3, 4] of the same molecule?
**A.** The value was 99%.

**Q.** Cc1cc(C(F)(F)F)nn1CC(=O)N1CCC(c2nc(-c3cccc(Cl)c3)cs2)CC1 [Compound 123] was tested. Which “Percent Disease Control, Test B” value [1, 4] did it give?
**A.** The value was 68%.

**Q.** What about the “Percent Disease Control, Test C” value [2, 4] of the same molecule?
**A.** Its value is 0%.

**Q.** What about the “Percent Disease Control, Test A” value [3, 4] of the same molecule?
**A.** The value was 95%.

**Q.** Cc1cc(C(F)(F)F)nn1CC(=O)N1CCC(c2nc(-c3cccnc3)cs2)CC1 [Compound 124] was tested. Which “Percent Disease Control, Test B” value [1, 4] did it give?
**A.** The value was 98%.

**Q.** And the “Percent Disease Control, Test C” value [2, 4]?
**A.** Its value is 26%.

**Q.** What about the “Percent Disease Control, Test A” value [3, 4] of the same molecule?
**A.** Its value is 8%.

**Q.** With Cc1cc(C(F)(F)F)nn1CC(=O)N1CCC(c2nc(C3=NOC(c4ccc(O)c(O)c4)C3)cs2)CC1 (stereo not shown) [Compound 125] as the molecule, how does the “Percent Disease Control, Test B” value [1, 4] read?
**A.** The value was 53%.

**Q.** What about the “Percent Disease Control, Test C” value [2, 4] of the same molecule?
**A.** Its value is 0%.

**Q.** And the “Percent Disease Control, Test A” value [3, 4]?
**A.** Its value is 31%.

**Q.** O=C(Cn1nc(C(F)(F)F)cc1Br)N1CCC(c2nc(C3=NOC(c4ccccc4)C3)cs2)CC1 (stereo not shown) [Compound 126, 2-[5-bromo-3-(trifluoromethyl)-1H-pyrazol-1-yl]-1-[4-[4-(4,5-dihydro-5-phenyl-3-isoxazoly)-2-thiazolyl]-1-piperidinyl]ethanone] was tested. Which “Percent Disease Control, Test B” value [1, 4] did it give?
**A.** The value was 100%.

**Q.** And the “Percent Disease Control, Test C” value [2, 4]?
**A.** Its value is 99%.

**Q.** What about the “Percent Disease Control, Test A” value [3, 4] of the same molecule?
**A.** The value was 100%.

**Q.** And the “Percent Disease Control, Test A” value ([3]; compounds without asterisk (application rate not given), 100 = 100% disease control, 0 = no control relative to the controls, listed as 11)?
**A.** The value was 99%.

**Q.** For Cc1cc(C(F)(F)F)n(CC(=O)N2CCC(c3nc(C4=NOC(c5ccccc5)C4)cs3)CC2)n1 (stereo not shown) [Compound 128, 1-[4-[4-(4,5-dihydro-5-phenyl-3-isoxazolyl)-2-thiazolyl]-1-piperidinyl]-2-[3-methyl-5-(trifluoromethyl)-1H-pyrazol-1-yl]ethanone], which pest or weed control at 40 ppm [1, 5] is on record?
**A.** The pest or weed control at 40 ppm was 100%.

**Q.** What about the pest or weed control at 40 ppm [2, 6] of the same molecule?
**A.** The pest or weed control at 40 ppm was 99%.

**Q.** What about the pest or weed control at 40 ppm [3, 7] of the same molecule?
**A.** Its pest or weed control at 40 ppm is 100%.

**Q.** Which pest or weed control at 10 µg/mL [1, 5] does the source give for Cc1cc(C(F)(F)F)nn1CC(=S)N1CCC(c2nc(C3=NOC(c4ccccc4)C3)cs2)CC1 (stereo not shown) [Compound 130, 1-[4-[4-(4,5-dihydro-5-phenyl-3-isoxazolyl)-2-thiazolyl]-1-piperidinyl]-2-[5-methyl-3-(trifluoromethyl)-1H-pyrazol-1-yl]ethanethione] here?
**A.** Its pest or weed control at 10 µg/mL is 100%.

**Q.** What about the pest or weed control at 10 µg/mL [2, 6] of the same molecule?
**A.** Its pest or weed control at 10 µg/mL is 99%.

**Q.** And the pest or weed control at 10 µg/mL ([3]; Plasmopara, 144 h, ** tested at l0 ppm, read-out: Percent Disease Control, Test A)?
**A.** Its pest or weed control at 10 µg/mL is 100%.

**Q.** Which results are given for COc1ccccc1C1CC(c2csc(C3CCN(C(=O)Cn4nc(C(F)(F)F)cc4C)CC3)n2)=NO1 (stereo not shown) [Compound 131]?
**A.** Percent Disease Control, Test B ([1]; * tested at 40 ppm): 100%; Percent Disease Control, Test C ([2]; * tested at 40 ppm): 99%; Percent Disease Control, Test A ([3]; * tested at 40 ppm): 100%

**Q.** Which results are given for Cc1cc(C(F)(F)F)nn1CC(=O)N1CCC(c2nc(C3=NOC(C)(c4cc(Cl)sc4Cl)C3)cs2)CC1 (stereo not shown) [Compound 132]?
**A.** Percent Disease Control, Test B ([1]; * tested at 40 ppm): 100%; Percent Disease Control, Test C ([2]; * tested at 40 ppm): 91%; Percent Disease Control, Test A ([3]; * tested at 40 ppm): 85%

**Q.** Which “Percent Disease Control, Test B” value ([1]; * tested at 40 ppm) does the source give for Cc1ccc(C)c(C2CC(c3csc(C4CCN(C(=O)Cn5nc(C(F)(F)F)cc5C)CC4)n3)=NO2)c1 (stereo not shown) [Compound 133] here?
**A.** The value was 100%.

**Q.** What about the “Percent Disease Control, Test C” value ([2]; * tested at 40 ppm) of the same molecule?
**A.** Its value is 99%.

**Q.** What about the “Percent Disease Control, Test A” value ([3]; * tested at 40 ppm) of the same molecule?
**A.** The value was 100%.

**Q.** How did the “Percent Disease Control, Test B” value ([1]; * tested at 40 ppm) turn out when COC(=O)c1ccc(C2CC(c3csc(C4CCN(C(=O)Cn5nc(C(F)(F)F)cc5C)CC4)n3)=NO2)cc1 (stereo not shown) [Compound 134] was run?
**A.** The value was 100%.

**Q.** And the “Percent Disease Control, Test C” value ([2]; * tested at 40 ppm)?
**A.** Its value is 66%.

**Q.** And the “Percent Disease Control, Test A” value ([3]; * tested at 40 ppm)?
**A.** Its value is 90%.

**Q.** How did the “Percent Disease Control, Test B” value ([1]; * tested at 40 ppm) turn out when Cc1ccc(C2CC(c3csc(C4CCN(C(=O)Cn5nc(C(F)(F)F)cc5C)CC4)n3)=NO2)c(C)c1 (stereo not shown) [Compound 136] was run?
**A.** The value was 100%.

**Q.** What about the “Percent Disease Control, Test C” value ([2]; * tested at 40 ppm) of the same molecule?
**A.** Its value is 99%.

**Q.** And the “Percent Disease Control, Test A” value ([3]; * tested at 40 ppm)?
**A.** Its value is 99%.

**Q.** How did the pest or weed control at 40 ppm [1, 5] turn out when Cc1cc(C(F)(F)F)nn1CC(=O)N1CCC(c2nc(C3=NOC4(CCOc5ccccc54)C3)cs2)CC1 (stereo not shown) [Compound 137, 1-[4-[4-(2,3-dihydrospiro[4H-1-benzopyran-4,5′(4′H)-isoxazol]-3′-yl)-2-thiazolyl]-1-piperidinyl]-2-[5-methyl-3-(trifluoromethyl)-1H-pyrazol-1-yl]ethanone] was run?
**A.** Its pest or weed control at 40 ppm is 100%.

**Q.** What about the pest or weed control at 40 ppm [2, 6] of the same molecule?
**A.** The pest or weed control at 40 ppm was 99%.

**Q.** And the pest or weed control at 40 ppm [3, 7]?
**A.** Its pest or weed control at 40 ppm is 100%.

**Q.** Which “Percent Disease Control, Test B” value ([1]; * tested at 40 ppm) does the source give for Cc1cc(C(F)(F)F)nn1CC(=O)N1CCC(c2nc(C3=NOC4(CCC(C(C)(C)C)CC4)C3)cs2)CC1 (stereo not shown) [Compound 138] here?
**A.** The value was 100%.

**Q.** What about the “Percent Disease Control, Test C” value ([2]; * tested at 40 ppm) of the same molecule?
**A.** Its value is 99%.

**Q.** And the “Percent Disease Control, Test A” value ([3]; * tested at 40 ppm)?
**A.** The value was 93%.

**Q.** Which “Percent Disease Control, Test B” value ([1]; * tested at 40 ppm) does the source give for Cc1cc(C(F)(F)F)nn1CC(=O)N1CCC(c2nc(C3=NOC(c4ccccc4)(c4ccccc4)C3)cs2)CC1 [Compound 139] here?
**A.** The value was 98%.

**Q.** What about the “Percent Disease Control, Test C” value ([2]; * tested at 40 ppm) of the same molecule?
**A.** The value was 87%.

**Q.** And the “Percent Disease Control, Test A” value ([3]; * tested at 40 ppm)?
**A.** The value was 87%.

**Q.** Which results are given for COc1ccccc1C1(C)CC(c2csc(C3CCN(C(=O)Cn4nc(C(F)(F)F)cc4C)CC3)n2)=NO1 (stereo not shown) [Compound 140]?
**A.** Percent Disease Control, Test B ([1]; * tested at 40 ppm): 100%; Percent Disease Control, Test C ([2]; * tested at 40 ppm): 57%; Percent Disease Control, Test A ([3]; * tested at 40 ppm): 98%

**Q.** COCC1(c2ccccc2)CC(c2csc(C3CCN(C(=O)Cn4nc(C(F)(F)F)cc4C)CC3)n2)=NO1 (stereo not shown) [Compound 141] was tested. Which “Percent Disease Control, Test B” value ([1]; * tested at 40 ppm) did it give?
**A.** The value was 100%.

**Q.** And the “Percent Disease Control, Test C” value ([2]; * tested at 40 ppm)?
**A.** The value was 99%.

**Q.** What about the “Percent Disease Control, Test A” value ([3]; * tested at 40 ppm) of the same molecule?
**A.** The value was 99%.

**Q.** What does the source list for CSCC1(c2ccccc2)CC(c2csc(C3CCN(C(=O)Cn4nc(C(F)(F)F)cc4C)CC3)n2)=NO1 (stereo not shown) [Compound 142]?
**A.** Percent Disease Control, Test B ([1]; * tested at 40 ppm): 100%; Percent Disease Control, Test C ([2]; * tested at 40 ppm): 98%; Percent Disease Control, Test A ([3]; * tested at 40 ppm): 97%

**Q.** With Cc1cc(C(F)(F)F)nn1CC(=O)N1CCC(c2nc(C3=NOC(CS(C)(=O)=O)(c4ccccc4)C3)cs2)CC1 (stereo not shown) [Compound 143] as the molecule, how does the “Percent Disease Control, Test B” value ([1]; * tested at 40 ppm) read?
**A.** Its value is 100%.

**Q.** What about the “Percent Disease Control, Test C” value ([2]; * tested at 40 ppm) of the same molecule?
**A.** Its value is 99%.

**Q.** What about the “Percent Disease Control, Test A” value ([3]; * tested at 40 ppm) of the same molecule?
**A.** The value was 99%.

**Q.** What does the source list for Cc1cc(C(F)(F)F)nn1CC(=O)N1CCC(c2nc(C3=NOC(C[S+](C)[O-])(c4ccccc4)C3)cs2)CC1 (stereo not shown) [Compound 144]?
**A.** Percent Disease Control, Test B ([1]; * tested at 40 ppm): 100%; Percent Disease Control, Test C ([2]; * tested at 40 ppm): 93%; Percent Disease Control, Test A ([3]; * tested at 40 ppm): 99%

**Q.** For Cc1cc(C(F)(F)F)nn1CC(=O)N1CCC(c2nc(C3=CC(C)(c4ccccc4)OC3=O)cs2)CC1 (stereo not shown) [Compound 145], which “Percent Disease Control, Test B” value [1, 4] is on record?
**A.** Its value is 58%.

**Q.** What about the “Percent Disease Control, Test C” value [2, 4] of the same molecule?
**A.** Its value is 0%.

**Q.** What about the “Percent Disease Control, Test A” value [3, 4] of the same molecule?
**A.** The value was 17%.
